Where “and” joins values, the source holds several entries; their conditions need not be identical. Equal values may be shown once. Inconclusive results and toxic doses are left out. Rule as the data show it: active = T/C of 150% or more; inactive = T/C below 125%.
Test system: L1210 leukemia ip in BDF1 mice, survival T/C
Test: NCI In Vivo Anticancer Drug Screen. Data for tumor model L1210 Leukemia (intraperitoneal) in B6D2F1 (BDF1) mice
Settings: endpoint: mean survival time, higher = longer survival
Procedure, shortened: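 Transplantable tumor model; survival measured in treated vs vehicle control mice. Value = treated/control.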

[1] = dose: 100.0 mg/kg/injection, schedule: Q04DX003 (ip), vehicle: saline
[2] = dose: 200.0 mg/kg/injection, schedule: Q04DX003 (ip), vehicle: saline
[3] = dose: 400.0 mg/kg/injection, schedule: Q04DX003 (ip), vehicle: saline

Measured: T/C

C[C@]12CC[C@H](OC3OC(CO)C(O)C(O)C3O)C[C@H]1CC[C@@H]1[C@@H]2CC[C@]2(C)[C@@H](C3=CCOC3=O)CC[C@]12O (stereo not given in full)
inactive: dose: 0.5 mg/kg/injection, schedule: Q01DX001 (ip), vehicle: saline 103 % of control | dose: 0.5 mg/kg/injection, schedule: Q01DX010 (ip), vehicle: saline 98 % of control | dose: 1.0 mg/kg/injection, schedule: Q01DX001 (ip), vehicle: saline 105 % of control | dose: 1.0 mg/kg/injection, schedule: Q01DX010 (ip), vehicle: saline 107 % of control | dose: 2.0 mg/kg/injection, schedule: Q01DX001 (ip), vehicle: saline 105 % of control | dose: 2.0 mg/kg/injection, schedule: Q01DX010 (ip), vehicle: saline 107 % of control | dose: 4.0 mg/kg/injection, schedule: Q01DX001 (ip), vehicle: saline 103 % of control | dose: 8.0 mg/kg/injection, schedule: Q01DX001 (ip), vehicle: saline 103 % of control | dose: 16.0 mg/kg/injection, schedule: Q01DX001 (ip), vehicle: saline 108 % of control

CCOC(=O)C(CC(C)C)NP(=O)(CCl)N(CCCl)CCCl (stereo not given)
inactive: dose: 25.0 mg/kg/injection, schedule: Q01DX015 (ip), vehicle: other 102 % of control | dose: 50.0 mg/kg/injection, schedule: Q01DX015 (ip), vehicle: other 104 % of control | dose: 100.0 mg/kg/injection, schedule: Q01DX001 (ip), vehicle: saline 104 % of control | dose: 100.0 mg/kg/injection, schedule: Q01DX015 (ip), vehicle: other 102 % of control | [1] 95 % of control | dose: 200.0 mg/kg/injection, schedule: Q01DX001 (ip), vehicle: saline 104 % of control | dose: 200.0 mg/kg/injection, schedule: Q01DX015 (ip), vehicle: other 102 % of control | [2] 95 % of control | dose: 400.0 mg/kg/injection, schedule: Q01DX001 (ip), vehicle: saline 106 % of control | [3] 91 % of control

C[N+](C)(C)CCCCCCCCCC[N+](C)(C)CCCCCCCCCC[N+](C)(C)CCCCCCCCCC[N+](C)(C)C
inactive: dose: 25.0 micrograms/kg/injection, schedule: Q04DX003 (ip), vehicle: Klucel (hydroxypropylcellulose) (HPC) 96 % of control | dose: 50.0 micrograms/kg/injection, schedule: Q04DX003 (ip), vehicle: Klucel (hydroxypropylcellulose) (HPC) 97 % of control | dose: 100.0 micrograms/kg/injection, schedule: Q04DX003 (ip), vehicle: Klucel (hydroxypropylcellulose) (HPC) 97 % of control

NC(=O)SCC(=O)Nc1ccc2ncccc2c1
inactive: dose: 50.0 mg/kg/injection, schedule: Q01DX001 (ip), vehicle: carboxymethylcellulose (CMC) 97 % of control | dose: 88.0 mg/kg/injection, schedule: Q01DX001 (ip), vehicle: carboxymethylcellulose (CMC) 95 % of control and 112 % of control | dose: 100.0 mg/kg/injection, schedule: Q01DX001 (ip), vehicle: carboxymethylcellulose (CMC) 94 % of control | dose: 100.0 mg/kg/injection, schedule: Q01DX009 (ip), vehicle: saline sonified 98 % of control | [1] 93 % of control | dose: 134.0 mg/kg/injection, schedule: Q01DX001 (ip), vehicle: carboxymethylcellulose (CMC) 95 % of control and 105 % of control | dose: 200.0 mg/kg/injection, schedule: Q01DX009 (ip), vehicle: saline sonified 90 % of control | [2] 109 % of control | dose: 300.0 mg/kg/injection, schedule: Q01DX001 (ip), vehicle: carboxymethylcellulose (CMC) 100 % of control and 87 % of control | dose: 400.0 mg/kg/injection, schedule: Q01DX001 (ip), vehicle: carboxymethylcellulose (CMC) 100 % of control | dose: 400.0 mg/kg/injection, schedule: Q01DX009 (ip), vehicle: saline sonified 101 % of control | [3] 96 % of control

CCCCCCSc1nccnc1C
inactive: dose: 25.0 mg/kg/injection, schedule: Q01DX009 (ip), vehicle: Klucel (hydroxypropylcellulose) (HPC) 100 % of control | dose: 50.0 mg/kg/injection, schedule: Q01DX001 (ip), vehicle: Klucel (hydroxypropylcellulose) (HPC) 92 % of control | dose: 50.0 mg/kg/injection, schedule: Q01DX009 (ip), vehicle: Klucel (hydroxypropylcellulose) (HPC) 92 % of control and 96 % of control | dose: 50.0 mg/kg/injection, schedule: Q04DX002 (ip), vehicle: Klucel (hydroxypropylcellulose) (HPC) 92 % of control | dose: 50.0 mg/kg/injection, schedule: Q04DX003 (ip), vehicle: Klucel (hydroxypropylcellulose) (HPC) 93 % of control | dose: 100.0 mg/kg/injection, schedule: Q01DX001 (ip), vehicle: Klucel (hydroxypropylcellulose) (HPC) 95 % of control | dose: 100.0 mg/kg/injection, schedule: Q01DX009 (ip), vehicle: Klucel (hydroxypropylcellulose) (HPC) 123 % of control and 91 % of control | dose: 100.0 mg/kg/injection, schedule: Q04DX002 (ip), vehicle: Klucel (hydroxypropylcellulose) (HPC) 102 % of control | dose: 100.0 mg/kg/injection, schedule: Q04DX003 (ip), vehicle: Klucel (hydroxypropylcellulose) (HPC) 95 % of control | dose: 200.0 mg/kg/injection, schedule: Q01DX001 (ip), vehicle: Klucel (hydroxypropylcellulose) (HPC) 98 % of control | dose: 200.0 mg/kg/injection, schedule: Q01DX009 (ip), vehicle: Klucel (hydroxypropylcellulose) (HPC) 100 % of control | dose: 200.0 mg/kg/injection, schedule: Q04DX002 (ip), vehicle: Klucel (hydroxypropylcellulose) (HPC) 87 % of control | dose: 200.0 mg/kg/injection, schedule: Q04DX003 (ip), vehicle: Klucel (hydroxypropylcellulose) (HPC) 92 % of control | dose: 400.0 mg/kg/injection, schedule: Q01DX001 (ip), vehicle: Klucel (hydroxypropylcellulose) (HPC) 98 % of control | dose: 400.0 mg/kg/injection, schedule: Q04DX002 (ip), vehicle: Klucel (hydroxypropylcellulose) (HPC) 94 % of control | dose: 400.0 mg/kg/injection, schedule: Q04DX003 (ip), vehicle: Klucel (hydroxypropylcellulose) (HPC) 87 % of control

N#CC(C#N)=Cc1ccc(O)cc1
inactive: dose: 5.0 mg/kg/injection, schedule: Q01DX001 (ip), vehicle: saline 105 % of control | dose: 10.0 mg/kg/injection, schedule: Q01DX001 (ip), vehicle: saline 105 % of control | dose: 20.0 mg/kg/injection, schedule: Q01DX001 (ip), vehicle: saline 92 % of control | dose: 40.0 mg/kg/injection, schedule: Q01DX001 (ip), vehicle: saline 103 % of control | dose: 80.0 mg/kg/injection, schedule: Q01DX001 (ip), vehicle: saline 97 % of control

Source: PubChem BioAssay AID248 (DTP/NCI, 2004)
